Measurements reported in the CheMixHub viscosity set.

Assay: xn = mol fraction of the nth substance listed
Settings: 101 kPa

CC(=O)N(C)C + CO
viscosity [mPa·s]
Settings	303.15 K	308.15 K	313.15 K	318.15 K
x1 = 0.0976	0.572	–	–	–
x1 = 0.1993	0.626	–	–	–
x1 = 0.2967	0.673	–	–	–
x1 = 0.3971	0.712	–	–	–
x1 = 0.4998	0.75	–	–	–
x1 = 0.5962	0.78	–	–	–
x1 = 0.648	0.795	–	–	–
x1 = 0.7762	0.829	–	–	–
x1 = 0.8699	0.846	–	–	–
x2 = 0.125	0.872	0.795	0.737	0.693
x2 = 0.232	0.856	0.784	0.725	0.675
x2 = 0.324	0.832	0.763	0.709	0.655
x2 = 0.405	0.797	0.733	0.682	0.625
x2 = 0.644	0.697	0.647	0.598	0.539
x2 = 0.915	0.567	0.531	0.492	0.431
x2 = 0.939	0.544	0.507	0.471	0.413
x2 = 0.961	0.529	0.494	0.458	0.398

CCCCCCCCCO + CO
viscosity [mPa·s]
Settings	298.15 K	308.15 K	318.15 K
x2 = 0.05	8.515	6.146	4.44
x2 = 0.1	7.93	5.765	4.2
x2 = 0.15	7.356	5.387	3.958
x2 = 0.2	6.793	5.013	3.716
x2 = 0.25	6.245	4.644	3.474
x2 = 0.3	5.711	4.281	3.233
x2 = 0.35	5.193	3.925	2.994
x2 = 0.4	4.694	3.579	2.756
x2 = 0.45	4.214	3.242	2.521
x2 = 0.5	3.754	2.916	2.29
x2 = 0.55	3.317	2.603	2.063
x2 = 0.6	2.902	2.302	1.841
x2 = 0.65	2.511	2.016	1.625
x2 = 0.7	2.146	1.744	1.417
x2 = 0.75	1.807	1.488	1.215
x2 = 0.8	1.496	1.248	1.023
x2 = 0.85	1.212	1.025	0.8404
x2 = 0.9	0.9583	0.8198	0.6684
x2 = 0.95	0.7342	0.6326	0.508

CC(=O)N(C)C + COC(=O)OC
298.15 K
Settings	viscosity [mPa·s]
x2 = 0.0376	0.937
x2 = 0.0836	0.914
x2 = 0.1443	0.887
x2 = 0.2234	0.854
x2 = 0.3348	0.807
x2 = 0.4705	0.757
x2 = 0.5544	0.726
x2 = 0.6212	0.702
x2 = 0.6902	0.679
x2 = 0.7541	0.659
x2 = 0.8244	0.636
x2 = 0.9102	0.608
